The target of assay [1] is Tyro3 (Homo sapiens (Human), UniProt Q06418). The assay can be described thus: biochemical. Particulars: read-out: Tyro3IC50.
Procedure: (§1) 0.1 ul test compounds dissolved in DMSO were transferred from compound plates to white 384-well assay plates (Greiner [sequence] plates). […] The plate was protected from light and incubated at room temperature for 60 min.
For assay [2], the target named is c-Mer (Homo sapiens (Human), UniProt Q12866). Particulars: read-out: c-Mer IC50; HTRF, 60 min room temperature.
Procedure: as §1
Assay [3] addresses Phospho-Axl (Homo sapiens (Human), UniProt P30530). The assay can be described thus: biochemical. The conditions noted are these: HTRF, 60 min room temperature. For orientation: Time-resolved FRET reads energy transfer from a long-lived donor to a nearby acceptor.
Procedure: Autophosphorylation of Axl was carried out by incubating the recombinant Axl protein (Life Technologies, PV4275) in buffer containing 50 mM Tris, pH7.5, 0.2 mg/ml Axl, 5 mM ATP, 20 mM MgCl2 and 2 mM DTT at room temperature for 1 hour.
as §1

From US10053465B2 (Incyte Corporation, priority 2015, dated 2018) come the findings set out here.

Chain of Phospho-Axl (P30530 26-894): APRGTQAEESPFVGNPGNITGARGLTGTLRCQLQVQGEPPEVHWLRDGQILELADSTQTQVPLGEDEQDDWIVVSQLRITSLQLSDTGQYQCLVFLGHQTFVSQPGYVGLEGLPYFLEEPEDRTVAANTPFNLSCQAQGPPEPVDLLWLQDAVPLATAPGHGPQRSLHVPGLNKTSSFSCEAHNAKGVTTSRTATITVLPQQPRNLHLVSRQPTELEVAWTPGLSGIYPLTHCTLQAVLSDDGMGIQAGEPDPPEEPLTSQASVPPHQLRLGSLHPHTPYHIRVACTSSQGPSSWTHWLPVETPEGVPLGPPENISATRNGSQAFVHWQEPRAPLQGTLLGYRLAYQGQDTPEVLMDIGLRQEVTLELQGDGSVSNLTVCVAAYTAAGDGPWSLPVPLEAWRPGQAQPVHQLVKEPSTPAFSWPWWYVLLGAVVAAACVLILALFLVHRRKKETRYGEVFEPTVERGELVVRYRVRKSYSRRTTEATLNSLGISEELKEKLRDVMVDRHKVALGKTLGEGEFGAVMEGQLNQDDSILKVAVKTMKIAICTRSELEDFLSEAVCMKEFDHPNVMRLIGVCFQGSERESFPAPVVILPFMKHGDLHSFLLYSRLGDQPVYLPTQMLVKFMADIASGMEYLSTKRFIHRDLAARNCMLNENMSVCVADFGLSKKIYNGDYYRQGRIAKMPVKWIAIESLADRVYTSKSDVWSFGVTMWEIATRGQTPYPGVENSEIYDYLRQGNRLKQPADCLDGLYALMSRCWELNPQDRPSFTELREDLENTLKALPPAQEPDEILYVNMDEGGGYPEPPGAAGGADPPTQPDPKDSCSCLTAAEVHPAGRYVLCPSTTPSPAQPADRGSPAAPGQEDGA
Chain of c-Mer (Q12866 21-999): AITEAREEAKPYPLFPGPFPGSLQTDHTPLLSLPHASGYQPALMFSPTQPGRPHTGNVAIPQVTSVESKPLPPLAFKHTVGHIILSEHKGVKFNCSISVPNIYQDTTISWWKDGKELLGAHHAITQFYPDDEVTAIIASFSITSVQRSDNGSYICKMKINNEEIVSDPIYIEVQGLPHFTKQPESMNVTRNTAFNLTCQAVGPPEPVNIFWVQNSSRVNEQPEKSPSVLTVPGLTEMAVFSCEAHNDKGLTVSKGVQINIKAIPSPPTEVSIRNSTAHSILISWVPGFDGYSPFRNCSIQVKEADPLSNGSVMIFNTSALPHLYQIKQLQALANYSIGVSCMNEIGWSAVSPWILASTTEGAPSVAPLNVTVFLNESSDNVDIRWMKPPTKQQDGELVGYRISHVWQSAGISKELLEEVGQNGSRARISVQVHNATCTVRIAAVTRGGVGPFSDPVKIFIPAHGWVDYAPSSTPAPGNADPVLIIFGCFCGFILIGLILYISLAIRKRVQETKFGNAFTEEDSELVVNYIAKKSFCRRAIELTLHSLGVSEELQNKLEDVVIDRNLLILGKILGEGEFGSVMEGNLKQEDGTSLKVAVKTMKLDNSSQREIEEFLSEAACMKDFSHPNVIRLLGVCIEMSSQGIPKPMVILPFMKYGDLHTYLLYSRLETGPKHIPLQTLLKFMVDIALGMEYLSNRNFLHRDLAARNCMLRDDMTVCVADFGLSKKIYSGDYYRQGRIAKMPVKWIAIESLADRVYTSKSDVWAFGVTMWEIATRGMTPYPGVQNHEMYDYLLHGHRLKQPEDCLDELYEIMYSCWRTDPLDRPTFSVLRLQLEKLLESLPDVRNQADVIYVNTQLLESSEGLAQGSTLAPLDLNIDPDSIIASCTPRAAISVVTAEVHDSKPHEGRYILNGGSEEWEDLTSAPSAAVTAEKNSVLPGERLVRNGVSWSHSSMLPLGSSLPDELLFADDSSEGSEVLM
Chain of Tyro3 (Q06418 41-890): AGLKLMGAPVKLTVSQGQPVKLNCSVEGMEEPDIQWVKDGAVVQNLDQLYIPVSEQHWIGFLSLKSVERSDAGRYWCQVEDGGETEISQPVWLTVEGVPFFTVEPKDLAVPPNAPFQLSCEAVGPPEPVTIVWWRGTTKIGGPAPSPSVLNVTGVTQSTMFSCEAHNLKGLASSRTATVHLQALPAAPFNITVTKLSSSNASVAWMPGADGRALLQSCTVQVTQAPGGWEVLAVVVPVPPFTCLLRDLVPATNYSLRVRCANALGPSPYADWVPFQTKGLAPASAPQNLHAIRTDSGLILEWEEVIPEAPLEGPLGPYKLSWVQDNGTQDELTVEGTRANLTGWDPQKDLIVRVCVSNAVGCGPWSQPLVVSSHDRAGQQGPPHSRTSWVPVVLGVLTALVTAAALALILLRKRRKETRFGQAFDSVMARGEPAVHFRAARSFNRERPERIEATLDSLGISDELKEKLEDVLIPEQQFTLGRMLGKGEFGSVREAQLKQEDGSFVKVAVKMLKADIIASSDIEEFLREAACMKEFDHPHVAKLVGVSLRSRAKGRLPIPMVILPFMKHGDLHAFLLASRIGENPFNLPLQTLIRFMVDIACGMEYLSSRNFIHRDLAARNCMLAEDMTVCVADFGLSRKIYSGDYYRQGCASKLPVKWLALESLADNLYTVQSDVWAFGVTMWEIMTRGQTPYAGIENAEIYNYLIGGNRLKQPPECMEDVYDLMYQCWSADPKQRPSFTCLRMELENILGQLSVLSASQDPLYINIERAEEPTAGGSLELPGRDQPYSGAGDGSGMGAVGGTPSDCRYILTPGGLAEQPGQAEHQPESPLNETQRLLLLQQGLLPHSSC

Take `O=C(NCC1(c2cccc(-c3ncnc4[nH]ccc34)c2)Cc2ccccc2C1)N1CCOCC1` [Example 35, N-({2-[3-(7H-Pyrrolo[2,3-d]pyrimidin-4-yl)phenyl]-2,3-dihydro-1H-inden-2-yl}methyl)morpholine-4-carboxamide]: the IC50 in assay [1] and in assay [2] was above 3 µM each time.

In the case of `N#CCC1(c2cccc(-c3ncnc4[nH]ccc34)c2)Cc2ccccc2C1` [Example 36, {2-[3-(7H-Pyrrolo[2,3-d]pyrimidin-4-yl)phenyl]-2,3-dihydro-1H-inden-2-yl}acetonitrile], the IC50 in assay [1] was above 3 µM.

As for `NCCC1(c2cccc(-c3ncnc4[nH]ccc34)c2)Cc2ccccc2C1` [Example 37, 2-{2-[3-(7H-Pyrrolo[2,3-d]pyrimidin-4-yl)phenyl]-2,3-dihydro-1H-inden-2-yl}ethanamine], the IC50 was above 3 µM in assay [1] and below 0.5 µM in assay [3].

Turning to `CC(C)C(=O)NCCC1(c2cccc(-c3ncnc4[nH]ccc34)c2)Cc2ccccc2C1` [Example 38, 2-Methyl-N-(2-{2-[3-(7H-pyrrolo[2,3-d]pyrimidin-4-yl)phenyl]-2,3-dihydro-1H-inden-2-yl}ethyl)propanamide], in assay [1], the IC50 was above 3 µM.

Turning to `O=C(NCCC1(c2cccc(-c3ncnc4[nH]ccc34)c2)Cc2ccccc2C1)C1CC1` [Example 39, N-(2-{2-[3-(7H-Pyrrolo[2,3-d]pyrimidin-4-yl)phenyl]-2,3-dihydro-1H-inden-2-yl}ethyl)cyclopropanecarboxamide], the IC50 was above 3 µM in assay [1] and below 0.5 µM in assay [3].

Turning to `NCC1(c2cccc(-c3ncnc4[nH]ccc34)c2)Cc2ccc(CNC3CC3)cc2C1` (stereo not shown) [Example 40, N-((2-(3-(7H-Pyrrolo[2,3-d]pyrimidin-4-yl)phenyl)-2-(aminomethyl)-2,3-dihydro-1H-inden-5-yl)methyl)cyclopropanamine], the IC50 in assay [1] and in assay [2] was above 3 µM in each case.

Turning to `NCC1(c2cccc(-c3ncnc4[nH]ccc34)c2)Cc2ccc(CNC3CCC3)cc2C1` (stereo not shown) [Example 41, N-((2-(3-(7H-Pyrrolo[2,3-d]pyrimidin-4-yl)phenyl)-2-(aminomethyl)-2,3-dihydro-1H-inden-5-yl)methyl)cyclobutanamine], the IC50 in assay [1] and in assay [2] was above 3 µM throughout.

As for `NCC1(c2cccc(-c3ncnc4[nH]ccc34)c2)Cc2ccc(CN3CCC[C@@H]3C(N)=O)cc2C1` (stereo partly drawn) [Example 43, (2R)-1-((2-(3-(7H-Pyrrolo[2,3-d]pyrimidin-4-yl)phenyl)-2-(aminomethyl)-2,3-dihydro-1H-inden-5-yl)methyl)pyrrolidine-2-carboxamide], the IC50 in assay [1] and in assay [3] was above 3 µM throughout.

As for `NCC1(c2cccc(-c3ncnc4[nH]ccc34)c2)Cc2ccc(CN3CC[C@H](C(N)=O)C3)cc2C1` (stereo partly drawn) [Example 44, (3S)-1-((2-(3-(7H-Pyrrolo[2,3-d]pyrimidin-4-yl)phenyl)-2-(aminomethyl)-2,3-dihydro-1H-inden-5-yl)methyl)pyrrolidine-3-carboxamide], in assay [2], the IC50 was above 3 µM.

`NCC1(c2cccc(-c3ncnc4[nH]ccc34)c2)Cc2ccc(CN3CCC3)cc2C1` (stereo not shown) [Example 46, (2-(3-(7H-Pyrrolo[2,3-d]pyrimidin-4-yl)phenyl)-5-(azetidin-1-ylmethyl)-2,3-dihydro-1H-inden-2-yl)methanamine]: the IC50 in assay [2] is above 3 µM.

For the compound `NCC1(c2cccc(-c3ncnc4[nH]ccc34)c2)Cc2ccc(CN3CC(F)C3)cc2C1` (stereo not shown) [Example 47, (2-(3-(7H-Pyrrolo[2,3-d]pyrimidin-4-yl)phenyl)-5-((3-fluoroazetidin-1-yl)methyl)-2,3-dihydro-1H-inden-2-yl)methanamine], the IC50 in assay [2] was above 3 µM.

Consider `N#Cc1ccc2c(c1)CC(CNC(=O)C1CC1)(c1cccc(-c3ncnc4[nH]ccc34)c1)C2` (stereo not shown) [Example 50, N-({5-Cyano-2-[3-(7H-pyrrolo[2,3-d]pyrimidin-4-yl)phenyl]-2,3-dihydro-1H-inden-2-yl}methyl)cyclopropanecarboxamide], for which the IC50 in assay [1] is above 3 µM.

On to `CN(C)C1CCN(c2ccc3c(c2)CC(CN)(c2cccc(-c4ncnc5[nH]ccc45)c2)C3)C1` (stereo not shown) [Example 52, 1-{2-(Aminomethyl)-2-[3-(7H-pyrrolo[2,3-d]pyrimidin-4-yl)phenyl]-2,3-dihydro-1H-inden-5-yl}-N,N-dimethylpyrrolidin-3-amine], for which the IC50 in assay [1] and in assay [3] was above 3 µM throughout.

On to `CNC1CCN(c2ccc3c(c2)CC(CN)(c2cccc(-c4ncnc5[nH]ccc45)c2)C3)C1` (stereo not shown) [Example 53, 1-{2-(Aminomethyl)-2-[3-(7H-pyrrolo[2,3-d]pyrimidin-4-yl)phenyl]-2,3-dihydro-1H-inden-5-yl}-N-methylpyrrolidin-3-amine], for which the IC50 in assay [1] and in assay [3] was above 3 µM each time.

As to `NCC1(c2cccc(-c3ncnc4[nH]ccc34)c2)Cc2ccc(N3CCC(O)C3)cc2C1` (stereo not shown) [Example 54, 1-{2-(Aminomethyl)-2-[3-(7H-pyrrolo[2,3-d]pyrimidin-4-yl)phenyl]-2,3-dihydro-1H-inden-5-yl}pyrrolidin-3-ol], in assay [1], the IC50 is above 3 µM.

With `CC(O)C1CCN(c2ccc3c(c2)CC(CN)(c2cccc(-c4ncnc5[nH]ccc45)c2)C3)C1` (stereo not shown) [Example 55, 1-(1-{2-(Aminomethyl)-2-[3-(7H-pyrrolo[2,3-d]pyrimidin-4-yl)phenyl]-2,3-dihydro-1H-inden-5-yl}pyrrolidin-3-yl)ethanol], the IC50 in assay [1] and in assay [3] was above 3 µM in each case.

Turning to `NCC1(c2cccc(-c3ncnc4[nH]ccc34)c2)Cc2ccc(N3CCCC(O)C3)cc2C1` (stereo not shown) [Example 58, 1-{2-(Aminomethyl)-2-[3-(7H-pyrrolo[2,3-d]pyrimidin-4-yl)phenyl]-2,3-dihydro-1H-inden-5-yl}piperidin-3-ol], the values for the IC50 in assay [1] and in assay [2] were below 0.5 µM and above 3 µM, respectively.

For `N#CC1CCN(c2ccc3c(c2)CC(CN)(c2cccc(-c4ncnc5[nH]ccc45)c2)C3)CC1` (stereo not shown) [Example 59, 1-{2-(Aminomethyl)-2-[3-(7H-pyrrolo[2,3-d]pyrimidin-4-yl)phenyl]-2,3-dihydro-1H-inden-5-yl}piperidine-4-carbonitrile], the IC50 in assay [2] is above 3 µM.

For the compound `NCC1(c2cccc(-c3ncnc4[nH]ccc34)c2)Cc2ccc(NC3CCOCC3)cc2C1` (stereo not shown) [Example 60, N-{2-(Aminomethyl)-2-[3-(7H-pyrrolo[2,3-d]pyrimidin-4-yl)phenyl]-2,3-dihydro-1H-inden-5-yl}tetrahydro-2H-pyran-4-amine], the IC50 in assay [2] was above 3 µM.

As for `NCC1(c2cccc(-c3ncnc4[nH]ccc34)c2)Cc2ccc(N3CCCC3)cc2C1` (stereo not shown) [Example 61, 1-{5-Pyrrolidin-1-yl-2-[3-(7H-pyrrolo[2,3-d]pyrimidin-4-yl)phenyl]-2,3-dihydro-1H-inden-2-yl}methanamine], the IC50 in assay [1] was above 3 µM.

As for `COCCCNc1ccc2c(c1)CC(CN)(c1cccc(-c3ncnc4[nH]ccc34)c1)C2` (stereo not shown) [Example 66, 2-(Aminomethyl)-N-(3-methoxypropyl)-2-[3-(7H-pyrrolo[2,3-d]pyrimidin-4-yl)phenyl]indan-5-amine], in assay [1], the IC50 was above 3 µM.

Take `COCC1(Nc2ccc3c(c2)CC(CN)(c2cccc(-c4ncnc5[nH]ccc45)c2)C3)CC1` (stereo not shown) [Example 67, 2-(Aminomethyl)-N-[1-(methoxymethyl)cyclopropyl]-2-[3-(7H-pyrrolo[2,3-d]pyrimidin-4-yl)phenyl]indan-5-amine]: the IC50 in assay [1] was above 3 µM.

For `NCC1(c2cccc(-c3ncnc4[nH]ccc34)c2)Cc2ccc(-c3cccc(F)c3)cc2C1` (stereo not shown) [Example 70, 1-{5-(3-Fluorophenyl)-2-[3-(7H-pyrrolo[2,3-d]pyrimidin-4-yl)phenyl]-2,3-dihydro-1H-inden-2-yl}methanamine], in assay [2], the IC50 was above 3 µM.

For `NCC1(c2cccc(-c3ncnc4[nH]ccc34)c2)Cc2ccc(-c3ccc(F)cc3)cc2C1` (stereo not shown) [Example 71, 1-{5-(4-Fluorophenyl)-2-[3-(7H-pyrrolo[2,3-d]pyrimidin-4-yl)phenyl]-2,3-dihydro-1H-inden-2-yl}methanamine], the IC50 in assay [2] is above 3 µM.

Take `CN(C)c1ccc(-c2ccc3c(c2)CC(CN)(c2cccc(-c4ncnc5[nH]ccc45)c2)C3)cc1` (stereo not shown) [Example 72, 4-{2-(Aminomethyl)-2-[3-(7H-pyrrolo[2,3-d]pyrimidin-4-yl)phenyl]-2,3-dihydro-1H-inden-5-yl}-N,N-dimethylaniline]: the IC50 in assay [1] and in assay [3] was below 0.5 µM throughout.

Regarding `NCC1(c2cccc(-c3ncnc4[nH]ccc34)c2)Cc2ccc(-c3ccc4nccn4c3)cc2C1` (stereo not shown) [Example 73, 1-{5-Imidazo[1,2-a]pyridin-6-yl-2-[3-(7H-pyrrolo[2,3-d]pyrimidin-4-yl)phenyl]-2,3-dihydro-1H-inden-2-yl}methanamine], the IC50 in assay [1] is above 3 µM.

For `NCC1(c2cccc(-c3ncnc4[nH]ccc34)c2)Cc2ccc(-c3ccc(N4CCCC4)nc3)cc2C1` (stereo not shown) [Example 75, 1-{5-(6-Pyrrolidin-1-ylpyridin-3-yl)-2-[3-(7H-pyrrolo[2,3-d]pyrimidin-4-yl)phenyl]-2,3-dihydro-1H-inden-2-yl}methanamine], the IC50 in assay [1] is above 3 µM; in assay [3] it was below 0.5 µM.

Consider `NCC1(c2cccc(-c3ncnc4[nH]ccc34)c2)Cc2ccc(-c3cccnc3)cc2C1` (stereo not shown) [Example 77, (2-(3-(7H-Pyrrolo[2,3-d]pyrimidin-4-yl)phenyl)-5-(pyridin-3-yl)-2,3-dihydro-1H-inden-2-yl)methanamine], for which the IC50 was below 0.5 µM in assay [1] and above 3 µM in assay [2].

Turning to `NCC1(c2cccc(-c3ncnc4[nH]ccc34)c2)Cc2ccc(-c3ccncc3)cc2C1` (stereo not shown) [Example 78, (2-(3-(7H-Pyrrolo[2,3-d]pyrimidin-4-yl)phenyl)-5-(pyridin-4-yl)-2,3-dihydro-1H-inden-2-yl)methanamine], in assay [2], the IC50 is above 3 µM.

For the compound `Cc1cc2c(-c3cccc(C4(CN)Cc5ccccc5C4)c3)ncnc2[nH]1` [Example 93, 1-{2-[3-(6-Methyl-7H-pyrrolo[2,3-d]pyrimidin-4-yl)phenyl]-2,3-dihydro-1H-inden-2-yl}methanamine], the IC50 in assay [1] is above 3 µM.
